Test results taken from the supplement of paper PMC12350171.

Columns and labels:
Bacteroides fragilis NT = assay: IC25 growth inhibition; higher = less potent
Outline: (§1)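 Under anaerobic conditions, OD578 was read hourly in a plate reader for at least three biological replicates of monocultures grown overnight in mGAM. Each culture started at an OD578 of 0.01 in pre-reduced plates holding twofold drug dilutions and 1% DMSO (or water). IC25 was reported as a tested interval: the lowest concentration where the monotonic median area under the growth curve dropped below the cutoff. That cutoff was 0.75.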

[1] = test system: Bacteroides thetaiotaomicron; assay: IC25 growth inhibition; higher = less potent
Outline: as §1

Bacteroides uniformis = assay: IC25 growth inhibition; higher = less potent
Outline: as §1

Bacteroides vulgatus = assay: IC25 growth inhibition; higher = less potent
Outline: as §1

Clostridium bolteae = assay: IC25 growth inhibition; higher = less potent
Outline: as §1

Clostridium perfringens = assay: IC25 growth inhibition; higher = less potent
Outline: as §1

Clostridium ramosum = assay: IC25 growth inhibition; higher = less potent
Outline: as §1

[2] = test system: Clostridium saccharolyticum; assay: IC25 growth inhibition; higher = less potent
Outline: as §1

Collinsella aerofaciens = assay: IC25 growth inhibition; higher = less potent
Outline: as §1

Coprococcus comes = assay: IC25 growth inhibition; higher = less potent
Outline: as §1

Dorea formicigenerans = assay: IC25 growth inhibition; higher = less potent
Outline: as §1

Escherichia coli ED1a = assay: IC25 growth inhibition; higher = less potent
Outline: as §1

Eubacterium rectale = assay: IC25 growth inhibition; higher = less potent
Outline: as §1

[3] = test system: Fusobacterium nucleatum subsp. Nucleatum; assay: IC25 growth inhibition; higher = less potent
Outline: as §1

Parabacteroides merdae = assay: IC25 growth inhibition; higher = less potent
Outline: as §1

Roseburia intestinalis = assay: IC25 growth inhibition; higher = less potent
Outline: as §1

Ruminococcus gnavus = assay: IC25 growth inhibition; higher = less potent
Outline: as §1

[4] = test system: Salmonella enterica typhimurium; assay: IC25 growth inhibition; higher = less potent
Outline: as §1

Shigella flexneri = assay: IC25 growth inhibition; higher = less potent
Outline: as §1

[5] = test system: Streptococcus parasanguinis; assay: IC25 growth inhibition; higher = less potent
Outline: as §1

Streptococcus salivarius = assay: IC25 growth inhibition; higher = less potent
Outline: as §1

Vibrio cholerae = assay: IC25 growth inhibition; higher = less potent
Outline: as §1

[6] = test system: Yersinia enterocolitica WA-314; assay: IC25 growth inhibition; higher = less potent
Outline: as §1

[7] = test system: Yersinia pseudotuberculosis; assay: IC25 growth inhibition; higher = less potent
Outline: as §1

[8] = test system: Com21 synthetic gut community; assay: community biomass OD578 after 24 h drug treatment relative to untreated (fraction of untreated control); higher = more community growth; details: community: Com21 (Com20 + E. coli ED1a)
Protocol: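 Com21 (Com20 plus E. coli ED1a) was treated with drug for 24 h under anaerobic conditions in mGAM. Community OD578 was then measured and normalised to untreated Com21; mean of 3 biological replicates.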

[9] = drug pretreatment concentration 10 µM
[10] = drug pretreatment concentration 20 µM
[11] = drug pretreatment concentration 40 µM
[12] = drug pretreatment concentration 80 µM
[13] = drug pretreatment concentration 160 µM
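Wherever IC25 growth inhibition is given: lowest concentration where monotonic median growth AUC falls below 0.75 of drug-free control.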

SMILES	IC25 growth inhibition (Bacteroides fragilis NT) [µM]	IC25 growth inhibition [1] [µM]	IC25 growth inhibition (Bacteroides uniformis) [µM]	IC25 growth inhibition (Bacteroides vulgatus) [µM]	IC25 growth inhibition (Clostridium bolteae) [µM]	IC25 growth inhibition (Clostridium perfringens) [µM]	IC25 growth inhibition (Clostridium ramosum) [µM]	IC25 growth inhibition [2] [µM]	IC25 growth inhibition (Collinsella aerofaciens) [µM]	IC25 growth inhibition (Coprococcus comes) [µM]	IC25 growth inhibition (Dorea formicigenerans) [µM]	IC25 growth inhibition (Escherichia coli ED1a) [µM]	IC25 growth inhibition (Eubacterium rectale) [µM]	IC25 growth inhibition [3] [µM]	IC25 growth inhibition (Parabacteroides merdae) [µM]	IC25 growth inhibition (Roseburia intestinalis) [µM]	IC25 growth inhibition (Ruminococcus gnavus) [µM]	IC25 growth inhibition [4] [µM]	IC25 growth inhibition (Shigella flexneri) [µM]	IC25 growth inhibition [5] [µM]	IC25 growth inhibition (Streptococcus salivarius) [µM]	IC25 growth inhibition (Vibrio cholerae) [µM]	IC25 growth inhibition [6] [µM]	IC25 growth inhibition [7] [µM]	community biomass OD578 [8, 9]	community biomass OD578 [8, 10]	community biomass OD578 [8, 11]	community biomass OD578 [8, 12]	community biomass OD578 [8, 13]
COc1ccc2[nH]c([S+]([O-])Cc3ncc(C)c(OC)c3C)nc2c1 (stereo unspecified) [Omeprazole]	> 160	> 160	> 160	> 160	> 160	> 160	> 160	> 160	> 160	> 160	> 160	> 160	> 160	> 160	> 160	> 160	> 160	> 160	> 160	> 160	> 160	> 160	> 160	> 160	0.981	0.997	1.01	0.979	0.95
CC(CN1c2ccccc2Sc2ccccc21)N(C)C (stereo unspecified) [Promethazine]	≤ 160	≤ 80	> 160	≤ 20	> 160	≤ 160	> 160	> 160	> 160	≤ 160	≤ 160	> 160	≤ 160	> 160	≤ 10	≤ 160	≤ 160	> 160	> 160	> 160	≤ 160	≤ 160	> 160	≤ 160	0.987	1.01	0.99	0.991	0.949
CNCCCC1c2ccccc2C=Cc2ccccc21 [Protriptyline]	> 160	≤ 80	≤ 160	≤ 40	> 160	> 160	> 160	> 160	> 160	> 160	> 160	> 160	> 160	≤ 160	> 160	> 160	> 160	> 160	> 160	> 160	> 160	> 160	≤ 160	> 160	0.995	1.02	1.01	0.991	0.956
O=C1NCCN1CCN1CCC(c2cn(-c3ccc(F)cc3)c3ccc(Cl)cc23)CC1 [Sertindole]	≤ 40	≤ 40	≤ 20	≤ 20	≤ 80	≤ 80	≤ 80	≤ 40	≤ 40	≤ 80	≤ 20	> 160	≤ 20	≤ 40	≤ 40	≤ 20	≤ 40	> 160	> 80	≤ 80	≤ 20	≤ 80	> 80	≤ 160	1.01	0.991	0.99	0.786	0.451
